Reference: patent US20190018003A1, “TUMOR DISCRIMINATION METHOD, DIAGNOSTIC AGENT FOR TUMOR, AND SENSITIZER FOR TUMOR DIAGNOSIS” (TOTO LTD., priority 2017, published 2019)

Assays:
DLD-1 colon cancer cells = assay: Fluorescence enhancement in DLD-1 cells by separate administration of fluorescent dye (ALA) and particles, fluorescence microscope; assay type: cell-based, human; details: Example 6, ALA 2 mmol/l, particles 0.001 w/v %, immediately after observation light irradiation
Protocol: DLD-1 cells (DLD-1, JCRB9094) were prepared. This cell line was subcultured in an RPMI-1640 medium (RPMI-1640 medium (Life Technologies), 10 v/v % FBS (Life Technologies)). The cultured cells which reached a logarithmic growth phase 3 days or 4 days later were peeled off with Trypsin/EDTA (Thermo Fisher Scientific) and, after the reaction was terminated in an RPMI-1640 medium, centrifuged. The cell pellet obtained was suspended in an RPMI-1640 medium. The cell suspension was subjected to measurement of cell density, inoculated onto a 6-well plate at a density of 2.9×10^5 cells/2 ml/well, and cultured for 1 day.
An aqueous ALA solution (50 mmol/l) was mixed into an RPMI-1640 medium (Life Technologies) to form a 2 mmol/l ALA solution. […]
Evaluation was performed as follows. The medium of the DLD-1 cells on a 6-well plate, obtained in Example 3, was removed by an aspirator, and evaluation thereof was performed under conditions where PBS (−) and HBSS (−) in Example 4 were changed to RPMI-1640 medium and RPMI-1640 medium (no glutamine and no phenol red (Thermo Fisher Scientific), respectively, and the solution was used for detection of fluorescence.
Detection of fluorescence was performed in the same manner as in Example 5 by using an inverted fluorescence microscope and, from the acquired images, fluorescence intensities were obtained and relative fluorescence intensities were calculated.

[1] = test system: T24 urinary bladder cancer cells; assay: Fluorescence enhancement in T24 cells by separate administration of fluorescent dye (ALA) and particles, inverted fluorescence microscope; assay type: cell-based, human
Protocol: T24 cells (T24, JCRB0711) were prepared. This cell line was subcultured in an MEM medium (MEM, GlutaMAX™ supplement (Thermo Fisher Scientific), 10 v/v % FBS (Thermo Fischer Scientific)). The cultured cells which reached a logarithmic growth phase 3 days or 4 days later were peeled off with Trypsin/EDTA (Thermo Fisher Scientific) and, after the reaction was terminated in an MEM medium, centrifuged. The cell pellet obtained was suspended in an MEM medium. The cell suspension was subjected to measurement of cell density, inoculated onto a 6-well plate at a density of 3.6×10^4 cells/2 ml/well, and cultured for 3 days.
An aqueous ALA solution (50 mmol/l) was mixed into an MEM medium (MEM, GlutaMAX™ supplement (Thermo Fisher Scientific)) to form a 2 mmol/l ALA solution. Further, an aqueous solution of light scattering particles (2) (ii) was mixed into an MEM medium to form a 0.001 w/v % light scattering particle solution.
Evaluation was performed as follows. The medium of the T24 cells on a 6-well plate, obtained in Example 3, was removed by an aspirator, and thereto was added 2 ml of PBS (−) (Thermo Fisher Scientific). Once again, PBS (−) was removed by an aspirator, thereto was added 2 ml of an ALA solution, and the system was cultured for 2 hours. Then, the ALA solution on the 6-well plate was removed by an aspirator, thereto was added 2 ml of a light scattering particle solution, and the system was cultured for 2 hours. Further, the particle solution on the 6-well plate was removed by an aspirator, the residue was washed with HBSS (−) (Thermo Fisher Scientific), HBSS (−) was removed gain by an aspirator, to the residue was added 2 ml of HBSS (−), and the solution was used for observation and detection of fluorescence.
Observation and detection of fluorescence was performed by using an inverted fluorescence microscope (ECLIPSE Ti-E, Nikon). By using a halogen light source lamp and a 450 nm dichroic mirror, excitation light was irradiated through a 410 nm band pass filter of a 25 nm half-band width, and fluorescence was passed through a 600 nm long-pass filter. There were used an eyepiece of 10 times magnification and an objective lens of 20 times magnification and numerical aperture of 0.75. The irradiation aperture, exposure time, and gain were set to ND=8, 400 ms, and 14.0×, respectively. Fluorescent images were acquired by a cooling CCD color camera (DS-Fi3, Nikon) as digital images. By using an image analysis device IS-Elements AR ver.4.60 (Nikon), fluorescence was detected by subtracting luminance corresponding to dark noise from the image acquired, thereafter obtaining average luminance of all pixels where fluorescence is acquired, and calculating a fluorescence intensity. Also, the image acquired was observed visually.
Relative fluorescence intensity was calculated by using the fluorescence intensities acquired above according to the following formula:
[relative fluorescence intensity]=[fluorescence intensity under each condition]/[fluorescence intensity immediately after irradiation of observation light in the case of administration of fluorescent dye only]. […]
An aqueous ALA solution (50 mmol/l) was mixed into an MEM medium (MEM, GlutaMAX™ supplement (Thermo Fisher Scientific)) to form a 2 mmol/l ALA solution. An aqueous solution of silica particles having a particle size of 100 nm (sicastar, Silica Microsphere, Plain, 25 mg/ml, produced by Polyscience) was mixed into the MEM medium to form a 0.01 w/v % silica particle solution.
Evaluation was performed by removing the medium of the T24 cells on a 6-well plate, obtained in Example 3, under conditions where, in Example 4, PBS (−) and HBSS (−) were respectively changed to MEM medium and MEM medium (no glutamine, no phenol red (Thermo Fisher Scientific)), and the solution was used for detection of fluorescence. […]

SMILES: NCC(=O)CCC(=O)O [fluorescent dye, 5-aminolevulinic acid]
- Relative fluorescence intensity (DLD-1 colon cancer cells): 1.0
- Relative fluorescence intensity ([1]; Example 4, T24, ALA 2 mmol/l 2 h, then particles 0.001 w/v % 2 h, 50 seconds after observation light irradiation): 0.4
- Relative fluorescence intensity ([1]; Example 4, T24, ALA 2 mmol/l 2 h, then particles 0.001 w/v % 2 h, 150 seconds after observation light irradiation): 0.1
- Relative fluorescence intensity ([1]; Example 4, T24, ALA 2 mmol/l 2 h, then particles 0.001 w/v % 2 h, immediately after observation light irradiation, relative to dye only immediately after irradiation): 1.0
- Relative fluorescence intensity ([1]; Example 7, T24, ALA 2 mmol/l, administration of fluorescent dye only): 1.0
- Relative fluorescence intensity ([1]; Example 10, T24 cell line, ALA 2 mmol/l, particles 0.001 w/v %): 1.0
- Relative fluorescence intensity ([1]; Example 12, T24, ALA 2 mmol/l, silica particles 0.01 w/v %, immediately after observation light irradiation): 1.0
- Relative fluorescence intensity ([1]; Example 13, T24, ALA 2 mmol/l, polystyrene particles 0.01 w/v %, immediately after observation light irradiation): 1.0
- Relative fluorescence intensity ([1]; Example 14, T24, ALA 2 mmol/l, particles 0.001 w/v %, immediately after observation light irradiation): 1.0
- Relative fluorescence intensity ([1]; Example 15, T24, ALA 2 mmol/l, particles 0.001 w/v %, immediately after observation light irradiation): 1.0
